In patent US12285432B2, “Treatment of hair loss disorders with deuterated JAK inhibitors” (Sun Pharmaceutical Industries, Inc., priority 2021, dated 2025):
Like-named read-outs stand apart in the source and are kept apart here.

Legend:
[1] = Drug-drug interaction study of Compound (I) (CTP-543) and itraconazole in healthy volunteers, plasma pharmacokinetics; assay type: in vivo, human
[2] = tested on: alopecia areata; assay: Human clinical trials of CTP-543 in patients suffering from alopecia areata; assay type: in vivo
[3] = cited from earlier work
[4] = 12 mg Compound (I) alone (Reference), healthy volunteers, plasma
[5] = 12 mg Compound (I) with vs without itraconazole
[6] = 10 mg ruxolitinib with vs without ketoconazole 200 mg twice a day, healthy volunteers

SMILES | AUC(0-Tlast) [1, 4] [ng·h/mL] | AUC(0-∞) [1, 4] [ng·h/mL] | AUC(0-Tlast) ([1]; 12 mg Compound (I) with itraconazole 200 mg (Test), healthy volunteers, plasma) [ng·h/mL] | increase in the AUC as a result of dosing with itraconazole [1, 5] [%] | increase in the Cmax as a result of dosing with itraconazole [1, 5] [%] | half-life ([1]; Compound (I) without itraconazole) [h] | Cmax ([1]; human, plasma, 12 mg) [ng/mL] | half-life ([1]; human, plasma, 12 mg, read-out: t1/2 (converted)) [h] | half-life ([1]; human, plasma, read-out: half-life (converted)) [h] | hair growth in patients suffering from alopecia areata [2] | half-life ([3]; 10 mg ruxolitinib dosed with ketoconazole) [h] | AUC increase as a result of dosing with ketoconazole [3, 6] [%] | Cmax increase as a result of dosing with ketoconazole [3, 6] [%] | half-life ([3]; 10 mg ruxolitinib without ketoconazole) [h]
[2H]C1([2H])C([C@@H](CC#N)n2cc(-c3ncnc4[nH]ccc34)cn2)C([2H])([2H])C([2H])([2H])C1([2H])[2H] [Compound (I), (R)-3-(4-(7H-pyrrolo[2,3-d]pyrimidin-4-yl)-1H-pyrazol-1-yl)-3-(cyclopentyl-2,2,3,3,4,4,5,5-d8)propanenitrile] | 1326.80 | 1332.48 | 1679.53 | ~27 | ~13 | 4.18 | 266 | 4.13 | 4.62 | stimulate hair growth |  |  |  | 
N#CC[C@H](C1CCCC1)n1cc(-c2ncnc3[nH]ccc23)cn1.O=P(O)(O)O [ruxolitinib, (R)-3-(4-(7H-pyrrolo[2,3-d]pyrimidin-4-yl)-1H-pyrazol-1-yl)-3-cyclopentylpropanenitrile phosphate] |  |  |  |  |  |  |  |  |  |  | 6.0 | 91 | 33 | 3.7
